Laboratory results from the supplement of paper PMC10307832.

Columns and labels:
Experiment in all cases: relative viability (nuclei count vs DMSO), 5 days (fraction); higher = more cells survive
[1] = tested on: HCC-366
Summary of the method: (§1)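 Lung cancer cell lines, seeded in 1536-well plates, were treated the following day by pin tool with a single drug or with five library-drug doses (not always all listed) in √10 steps on top of a fixed anchor-drug dose. Cells were fixed and nuclei stained in one step after 5 days, and nuclei were counted. Relative viability is the nuclei count for treated wells divided by that for vehicle wells, reported as medians of duplicate plates.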

[2] = tested on: NCI-H1792
Summary of the method: as §1

[3] = tested on: NCI-H2087
Summary of the method: as §1

[4] = tested on: NCI-H647
Summary of the method: as §1

[5] = tested on: SK-MES-1
Summary of the method: as §1

[6] = tested on: EKVX
Summary of the method: as §1

[7] = tested on: SK-LU-1
Summary of the method: as §1

[8] = tested on: LOU-NH91
Summary of the method: as §1

[9] = tested on: HCC-827
Summary of the method: as §1

[10] = tested on: BEN
Summary of the method: as §1

[11] = tested on: NCI-H2009
Summary of the method: as §1

[12] = tested on: NCI-H2170
Summary of the method: as §1

[13] = tested on: LC-2-ad
Summary of the method: as §1

[14] = tested on: NCI-H1395
Summary of the method: as §1

[15] = tested on: NCI-H661
Summary of the method: as §1

[16] = tested on: NCI-H1355
Summary of the method: as §1

[17] = tested on: NCI-H1734
Summary of the method: as §1

[18] = tested on: NCI-H1437
Summary of the method: as §1

[19] = tested on: NCI-H2405
Summary of the method: as §1

[20] = tested on: NCI-H2228
Summary of the method: as §1

[21] = tested on: NCI-H596
Summary of the method: as §1

[22] = tested on: HARA
Summary of the method: as §1

O=C(O)c1ccc(-c2c[nH]c3ncc(-c4ccccc4)cc23)cc1C1CCCC1 + Cc1nc(NC(=O)N2CCC[C@H]2C(N)=O)sc1-c1ccnc(C(C)(C)C(F)(F)F)c1 [Alpelisib] (partner 2 µM)
relative viability ([1]; first compound 0.04 µM): 0.443
relative viability ([1]; first compound 0.1265 µM): 0.721
relative viability ([1]; first compound 0.4 µM): 0.653
relative viability ([1]; first compound 1.265 µM): 0.32
relative viability ([2]; first compound 0.04 µM): 0.681
relative viability ([2]; first compound 0.1265 µM): 0.9
relative viability ([2]; first compound 0.4 µM): 0.688
relative viability ([2]; first compound 1.265 µM): 0.66
relative viability ([3]; first compound 0.04 µM): 1.01
relative viability ([3]; first compound 0.1265 µM): 1.06
relative viability ([3]; first compound 0.4 µM): 1.08
relative viability ([3]; first compound 1.265 µM): 0.844
relative viability ([4]; first compound 0.04 µM): 1.14
relative viability ([4]; first compound 0.1265 µM): 1.24
relative viability ([4]; first compound 0.4 µM): 1.02
relative viability ([4]; first compound 1.265 µM): 0.766
relative viability ([5]; first compound 0.04 µM): 0.83
relative viability ([5]; first compound 0.1265 µM): 1.01
relative viability ([5]; first compound 0.4 µM): 0.834
relative viability ([5]; first compound 1.265 µM): 0.803
relative viability ([6]; first compound 0.04 µM): 0.984
relative viability ([6]; first compound 0.1265 µM): 0.966
relative viability ([6]; first compound 0.4 µM): 0.911
relative viability ([6]; first compound 1.265 µM): 0.812
relative viability ([7]; first compound 0.04 µM): 0.901
relative viability ([7]; first compound 0.1265 µM): 1.06
relative viability ([7]; first compound 0.4 µM): 0.817
relative viability ([7]; first compound 1.265 µM): 0.548
relative viability ([8]; first compound 0.04 µM): 0.756
relative viability ([8]; first compound 0.1265 µM): 0.803
relative viability ([8]; first compound 0.4 µM): 0.68
relative viability ([8]; first compound 1.265 µM): 0.608
relative viability ([9]; first compound 0.04 µM): 0.847
relative viability ([9]; first compound 0.1265 µM): 0.988
relative viability ([9]; first compound 0.4 µM): 0.89
relative viability ([9]; first compound 1.265 µM): 0.747
relative viability ([10]; first compound 0.04 µM): 1.28
relative viability ([10]; first compound 0.1265 µM): 1.07
relative viability ([10]; first compound 0.4 µM): 1.01
relative viability ([10]; first compound 1.265 µM): 0.913
relative viability ([11]; first compound 0.04 µM): 1.17
relative viability ([11]; first compound 0.1265 µM): 1.16
relative viability ([11]; first compound 0.4 µM): 1.09
relative viability ([11]; first compound 1.265 µM): 0.955
relative viability ([12]; first compound 0.04 µM): 0.812
relative viability ([12]; first compound 0.1265 µM): 0.803
relative viability ([12]; first compound 0.4 µM): 0.774
relative viability ([12]; first compound 1.265 µM): 0.584
relative viability ([13]; first compound 0.04 µM): 0.86
relative viability ([13]; first compound 0.1265 µM): 0.906
relative viability ([13]; first compound 0.4 µM): 0.827
relative viability ([13]; first compound 1.265 µM): 0.573
relative viability ([14]; first compound 0.04 µM): 1.35
relative viability ([14]; first compound 0.1265 µM): 1.01
relative viability ([14]; first compound 0.4 µM): 1.1
relative viability ([14]; first compound 1.265 µM): 0.769
relative viability ([15]; first compound 0.04 µM): 0.48
relative viability ([15]; first compound 0.1265 µM): 0.676
relative viability ([15]; first compound 0.4 µM): 0.675
relative viability ([15]; first compound 1.265 µM): 0.703
relative viability ([16]; first compound 0.04 µM): 0.795
relative viability ([16]; first compound 0.1265 µM): 0.804
relative viability ([16]; first compound 0.4 µM): 0.819
relative viability ([16]; first compound 1.265 µM): 0.621
relative viability ([17]; first compound 0.04 µM): 0.74
relative viability ([17]; first compound 0.1265 µM): 0.683
relative viability ([17]; first compound 0.4 µM): 0.598
relative viability ([17]; first compound 1.265 µM): 0.664
relative viability ([18]; first compound 0.04 µM): 0.998
relative viability ([18]; first compound 0.1265 µM): 0.951
relative viability ([18]; first compound 0.4 µM): 0.914
relative viability ([18]; first compound 1.265 µM): 0.882
relative viability ([19]; first compound 0.04 µM): 0.925
relative viability ([19]; first compound 0.1265 µM): 0.746
relative viability ([19]; first compound 0.4 µM): 0.796
relative viability ([19]; first compound 1.265 µM): 0.591
relative viability ([20]; first compound 0.04 µM): 0.755
relative viability ([20]; first compound 0.1265 µM): 0.787
relative viability ([20]; first compound 0.4 µM): 0.552
relative viability ([20]; first compound 1.265 µM): 0.468
relative viability ([21]; first compound 0.04 µM): 0.492
relative viability ([21]; first compound 0.1265 µM): 0.427
relative viability ([21]; first compound 0.4 µM): 0.484
relative viability ([21]; first compound 1.265 µM): 0.402
relative viability ([22]; first compound 0.04 µM): 0.775
relative viability ([22]; first compound 0.1265 µM): 0.988
relative viability ([22]; first compound 0.4 µM): 0.812
relative viability ([22]; first compound 1.265 µM): 0.707
